Experimental data from ChEMBL document CHEMBL1201862, “PubChem BioAssay data set” (2004).
Activity calls are given as the source filed them.

Key:
[1] = A High Throughput Confirmatory Assay used to Identify Novel Compounds that Inhibit Mycobacterium Tuberculosis in the absence of Glycerol.; type: functional
[2] = biological target: T1, Rac GTPase-activating protein 1 (Homo sapiens, UniProt Q9H0H5); assay: blockers of MgcRacGAP-driven Rac1 GTP hydrolysis – biochemical, ADP Hunter fluorescence, primary and confirmatory, confirmation (AID 624330); type: functional
T1 sequence (Q9H0H5 whole entry): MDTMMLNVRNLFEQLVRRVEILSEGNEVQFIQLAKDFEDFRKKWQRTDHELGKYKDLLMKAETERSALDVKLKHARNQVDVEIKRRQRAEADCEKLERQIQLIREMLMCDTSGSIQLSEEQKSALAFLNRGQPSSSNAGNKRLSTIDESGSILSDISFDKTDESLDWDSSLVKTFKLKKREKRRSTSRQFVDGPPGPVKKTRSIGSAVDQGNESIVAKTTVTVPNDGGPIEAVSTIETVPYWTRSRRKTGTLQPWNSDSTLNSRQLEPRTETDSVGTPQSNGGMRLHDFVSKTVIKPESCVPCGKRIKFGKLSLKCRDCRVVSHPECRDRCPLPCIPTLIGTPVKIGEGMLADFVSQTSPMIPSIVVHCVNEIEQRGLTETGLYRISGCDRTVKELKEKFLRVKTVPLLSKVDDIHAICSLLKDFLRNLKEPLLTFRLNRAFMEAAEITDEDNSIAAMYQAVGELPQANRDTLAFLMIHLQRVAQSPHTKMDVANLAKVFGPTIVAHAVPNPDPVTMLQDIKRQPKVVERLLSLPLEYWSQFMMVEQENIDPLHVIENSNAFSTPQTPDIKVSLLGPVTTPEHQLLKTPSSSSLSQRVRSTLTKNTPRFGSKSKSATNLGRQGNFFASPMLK

Mucolipin-3 = Mucolipin-3 (Homo sapiens, UniProt Q8TDD5); assay: Dose response cell-based high-throughput screening assay for agonists of the transient receptor potential channel ML3 (TRPML3). [Related pubchem assays: 1526, 1424, 1448 ]; type: functional
Ion channel NompC = Ion channel NompC (Danio rerio, UniProt Q7T1G6); assay: Fluorescence counterscreen assay for TRPML3 agonists: dose response cell-based high-throughput screening assay to identify agonists of the transient receptor potential channel N1 (TRPN1). [Related pubchem assays: 1526, 1424, 1448 ]; type: functional
[3] = biological target: T2, Heat shock factor protein 1 (Mus musculus, UniProt P38532); assay: enhancement of HSF1-driven luciferase signal – cell-based, NIH3T3, luminescence, dose retest, confirmation (AID 435004); type: functional;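 also: stress induced by proteasome inhibitor MG132 added 30 min after compound; luciferase reporter driven by HSF1 response element in NIH3T3 cells; actives raise luminescence as potentiators of the MG132 stress response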
T2 sequence (P38532 whole entry): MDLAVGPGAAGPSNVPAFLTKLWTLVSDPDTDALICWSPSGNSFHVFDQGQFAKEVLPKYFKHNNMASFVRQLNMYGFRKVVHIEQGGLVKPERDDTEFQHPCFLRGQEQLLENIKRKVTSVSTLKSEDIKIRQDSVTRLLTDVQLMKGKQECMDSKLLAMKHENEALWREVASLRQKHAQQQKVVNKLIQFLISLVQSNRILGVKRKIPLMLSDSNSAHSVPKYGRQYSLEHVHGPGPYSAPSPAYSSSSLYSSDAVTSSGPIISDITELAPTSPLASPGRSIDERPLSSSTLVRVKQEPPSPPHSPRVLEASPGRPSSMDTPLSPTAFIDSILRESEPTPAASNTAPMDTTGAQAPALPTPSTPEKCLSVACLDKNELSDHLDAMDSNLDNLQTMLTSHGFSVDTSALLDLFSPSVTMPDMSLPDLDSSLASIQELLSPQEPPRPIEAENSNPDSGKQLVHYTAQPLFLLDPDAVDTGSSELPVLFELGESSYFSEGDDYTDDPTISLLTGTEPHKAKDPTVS

[4] = M. tuberculosis H37Rv growth inhibitors, H37Rv strain (AID 1626); type: functional
[5] = Trypanosoma cruzi growth suppression in host cells – NIH3T3 host cells, beta-gal luminescence, confirmation (AID 2044); type: functional, cell-based;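 also: intracellular parasites grown in NIH/3T3 mouse fibroblasts as host cells; luminescent beta-galactosidase reporter signal from transgenic T. cruzi replicating inside host cells; inhibitors lower the luminescence signal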
[6] = NIH3T3 cell viability loss – ATP luminescence, mouse fibroblasts, counter-screen, dose response (AID 2010); type: functional, cell-based;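 also: cells exposed to compound for about 90 hours before reading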
[7] = biological target: T3, Neuropeptide Y receptor type 2 (Homo sapiens, UniProt P49146); assay: IC50 for human NPY-Y2 blockade – cell-based, counter-screen for NPY-Y1 antagonist project, dose response (AID 1278); type: functional
T3 sequence (P49146 whole entry): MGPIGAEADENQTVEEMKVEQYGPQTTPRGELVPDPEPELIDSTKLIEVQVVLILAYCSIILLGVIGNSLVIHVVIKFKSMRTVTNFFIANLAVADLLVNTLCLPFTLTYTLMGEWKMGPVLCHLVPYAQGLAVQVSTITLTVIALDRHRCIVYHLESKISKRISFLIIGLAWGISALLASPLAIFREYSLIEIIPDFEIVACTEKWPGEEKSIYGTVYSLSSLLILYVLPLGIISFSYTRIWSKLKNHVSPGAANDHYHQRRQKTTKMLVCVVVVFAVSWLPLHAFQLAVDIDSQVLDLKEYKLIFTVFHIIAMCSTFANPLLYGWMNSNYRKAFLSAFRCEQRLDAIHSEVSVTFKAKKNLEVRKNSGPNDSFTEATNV

[8] = biological target: T4, Neuropeptide Y receptor type 1 (Homo sapiens, UniProt P25929); assay: IC50 of human NPY-Y1 blockers – cell-based, dose response (AID 1277); type: functional
T4 sequence (P25929 whole entry): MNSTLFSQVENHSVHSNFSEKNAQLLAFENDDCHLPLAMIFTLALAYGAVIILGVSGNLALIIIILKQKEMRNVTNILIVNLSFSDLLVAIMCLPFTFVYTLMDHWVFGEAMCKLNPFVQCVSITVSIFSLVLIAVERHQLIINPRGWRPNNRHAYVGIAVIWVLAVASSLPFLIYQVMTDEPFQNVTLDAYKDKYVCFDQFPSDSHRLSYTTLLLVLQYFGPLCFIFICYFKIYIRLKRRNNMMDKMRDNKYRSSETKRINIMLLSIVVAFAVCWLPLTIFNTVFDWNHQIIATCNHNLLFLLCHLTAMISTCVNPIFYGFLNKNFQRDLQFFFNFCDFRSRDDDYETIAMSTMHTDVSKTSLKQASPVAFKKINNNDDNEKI

[9] = biological target: T5, Calpain-2 catalytic subunit (Sus scrofa, UniProt P43367); assay: m-calpain protease blockers, concentration series – biochemical, fluorogenic peptide substrate, dose response (AID 1420); type: functional
T5 sequence (P43367 whole entry): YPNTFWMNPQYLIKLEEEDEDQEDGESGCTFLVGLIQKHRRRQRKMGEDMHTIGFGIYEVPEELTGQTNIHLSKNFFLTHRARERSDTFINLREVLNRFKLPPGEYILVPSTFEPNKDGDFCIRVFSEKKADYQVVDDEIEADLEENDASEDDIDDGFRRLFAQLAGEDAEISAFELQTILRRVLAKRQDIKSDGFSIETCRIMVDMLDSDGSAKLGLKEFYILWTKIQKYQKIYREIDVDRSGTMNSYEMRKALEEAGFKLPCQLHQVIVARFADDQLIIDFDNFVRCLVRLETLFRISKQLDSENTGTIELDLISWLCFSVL

[10] = biological target: Luciferin 4-monooxygenase (Photinus pyralis, UniProt P08659); assay: inhibition of purified Photinus pyralis luciferase – biochemical, luminescence, dose response (AID 1891)
[11] = Luminescence Cell-Based Dose Confirmation HTS to Identify Inhibitors of Platelet Dense Granule Release. [Related pubchem assays: 1663 (Primary HTS), 1678 (Summary of Project)]; type: functional
[12] = biological target: Potassium voltage-gated channel subfamily KQT member 2 (Rattus norvegicus, UniProt O88943, W236L); assay: potentiation of rat KCNQ2 current – cell-based, automated electrophysiology, mechanism study for KCNQ2 potentiator project, dose response (AID 2603); type: functional
[13] = biological target: Epstein-Barr nuclear antigen 1 (Epstein-Barr virus (strain B95-8) (HHV-4) (Human herpesvirus 4), UniProt P03211); assay: inhibition of EBV nuclear antigen 1 DNA binding – biochemical, fluorescence polarization, 1536-well, dose response (AID 2381); parameters: species or system human gammaherpesvirus 4;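 also: fluorescence polarization of a Cy5 DNA probe bound by EBNA-1 protein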
[14] = biological target: Lytic switch protein BZLF1 (Epstein-Barr virus (strain B95-8) (HHV-4) (Human herpesvirus 4), UniProt P03206); assay: inhibition of BZLF1 ZTA DNA binding – biochemical, fluorescence polarization, Epstein-Barr virus, 1536-well, counter-screen for EBNA-1 inhibitor project, dose response (AID 2377); parameters: species or system human gammaherpesvirus 4;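 also: fluorescence polarization of Cy5-labelled ZRE DNA probe bound by purified Zta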
[15] = antiviral protection against BTV-induced cell death – arbovirus, BSR cells, confirmation (AID 1250); type: functional;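 also: protection from viral cytopathic effect measured as cell viability by ATP luminescence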
HEK293 [16] = assay: inhibition of NOD1-driven NF-kB reporter – cell-based, luminescence, uHTS, primary screen (AID 1578); type: functional; details: Homo sapiens
HEK293 [17] = assay: cells; type: functional, cell-based; details: Homo sapiens
HEK293 [18] = assay: cells; type: functional, cell-based; details: Homo sapiens; remark: listed apart in the source
[19] = Luminescence-based counterscreen assay for KLF5 inhibitors: dose response cell-based high throughput screening assay to identify cytotoxic compounds using the IEC-6 intestinal epithelial cell line. [Related pubchem assays: 1700 (Primary screen.), 1834 (Confirmation screen.), 1858 (Summary AID.), 1905 (Counterscreen.)]; type: functional
[20] = biological target: Nucleotide-binding oligomerization domain-containing protein 2 (Homo sapiens, UniProt Q9HC29); assay: inhibition of NOD2-driven NF-kB reporter – cell-based, luminescence, uHTS, HEK293 (AID 1566); type: functional
HEK293 [21] = assay: NOD2 signaling inhibitors in MDP-stimulated cells, cell-based, uHTS, luminescence (AID 2001); type: functional; details: Homo sapiens
HEK293 [22] = assay: cells; type: functional, cell-based; details: Homo sapiens; remark: listed apart in the source
Exodeoxyribonuclease V = Exodeoxyribonuclease V (Escherichia coli (strain K12), UniProt P04993+P07648+P08394); assay: RecBCD inhibition via phage-restricted bacterial growth – absorbance, V66 E. coli, mutant T4 phage, counter-screen for AddAB inhibitor project, dose response (AID 492957); type: functional, cell-based, Escherichia coli str. K-12 substr. MG1655
Nonstructural protein 1 = Nonstructural protein 1 (Influenza A virus, UniProt Q194T2); type: functional, Influenza A virus (A/California/07/2009(H1N1))
[23] = Counterscreen for AddAB inhibitors: absorbance-based bacterial cell-based high throughput dose response assay for inhibitors of bacterial viability. [Related pubchem assays (depositor defined):AID435030, AID449728, AID449731, AID488942, AID488955, AID488956]; type: functional
INS1 = assay: INS-1E survival protection against cytokine death – cell-based, luminescence, retest, dose response (AID 449756); type: functional; details: Rattus norvegicus;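 also: cell death triggered by IL-1 beta plus TNF-alpha plus IFN-gamma mixture; protective hits raise ATP signal compared with cytokine alone wells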
[24] = viability loss in HepG2 hepatoma cells – cell-based, ATP luminescence, cherry-pick, activator set 2, cytotoxicity control, dose response (AID 1053143); type: functional

Sequence of Ion channel NompC (Q7T1G6 whole entry): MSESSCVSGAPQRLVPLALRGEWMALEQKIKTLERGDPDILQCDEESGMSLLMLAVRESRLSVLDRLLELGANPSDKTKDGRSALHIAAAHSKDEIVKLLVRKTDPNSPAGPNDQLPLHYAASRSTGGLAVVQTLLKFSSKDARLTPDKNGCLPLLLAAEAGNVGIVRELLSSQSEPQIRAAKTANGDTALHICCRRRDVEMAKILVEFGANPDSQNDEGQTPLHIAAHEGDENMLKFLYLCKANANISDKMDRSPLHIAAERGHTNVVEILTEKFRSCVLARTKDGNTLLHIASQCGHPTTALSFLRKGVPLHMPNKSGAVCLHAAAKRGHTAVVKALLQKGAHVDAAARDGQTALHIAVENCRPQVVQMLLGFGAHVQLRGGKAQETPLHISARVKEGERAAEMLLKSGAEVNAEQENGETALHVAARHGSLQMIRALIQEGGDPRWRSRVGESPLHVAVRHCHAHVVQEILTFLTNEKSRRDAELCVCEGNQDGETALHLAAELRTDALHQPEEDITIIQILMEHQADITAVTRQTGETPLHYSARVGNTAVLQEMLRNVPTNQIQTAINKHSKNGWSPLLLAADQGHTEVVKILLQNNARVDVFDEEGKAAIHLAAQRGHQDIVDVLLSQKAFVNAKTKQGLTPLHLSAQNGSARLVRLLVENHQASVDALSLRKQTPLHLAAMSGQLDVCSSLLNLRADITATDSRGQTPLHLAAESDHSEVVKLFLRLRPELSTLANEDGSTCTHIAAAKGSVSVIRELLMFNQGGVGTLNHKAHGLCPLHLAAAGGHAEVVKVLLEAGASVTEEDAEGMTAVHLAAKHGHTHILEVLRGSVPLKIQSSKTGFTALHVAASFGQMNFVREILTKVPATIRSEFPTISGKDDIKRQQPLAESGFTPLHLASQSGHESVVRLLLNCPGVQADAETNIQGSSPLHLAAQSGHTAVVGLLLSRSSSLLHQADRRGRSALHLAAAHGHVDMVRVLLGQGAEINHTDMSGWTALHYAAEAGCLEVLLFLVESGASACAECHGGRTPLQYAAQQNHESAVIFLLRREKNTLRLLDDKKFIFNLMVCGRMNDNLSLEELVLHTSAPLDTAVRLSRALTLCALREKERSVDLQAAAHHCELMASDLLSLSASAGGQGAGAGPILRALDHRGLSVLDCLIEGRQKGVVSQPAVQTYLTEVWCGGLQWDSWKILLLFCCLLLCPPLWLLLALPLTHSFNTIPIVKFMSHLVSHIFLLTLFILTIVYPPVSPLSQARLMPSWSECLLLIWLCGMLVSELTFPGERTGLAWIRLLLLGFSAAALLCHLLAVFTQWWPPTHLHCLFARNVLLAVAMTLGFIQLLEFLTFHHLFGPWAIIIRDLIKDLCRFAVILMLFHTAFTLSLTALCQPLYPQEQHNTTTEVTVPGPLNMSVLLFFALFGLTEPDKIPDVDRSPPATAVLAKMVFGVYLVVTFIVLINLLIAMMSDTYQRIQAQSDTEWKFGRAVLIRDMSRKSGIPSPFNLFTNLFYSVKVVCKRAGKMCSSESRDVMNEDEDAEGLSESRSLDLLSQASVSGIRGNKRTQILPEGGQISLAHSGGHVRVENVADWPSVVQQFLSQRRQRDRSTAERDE
Sequence of Potassium voltage-gated channel subfamily KQT member 2 (O88943 whole entry W236L): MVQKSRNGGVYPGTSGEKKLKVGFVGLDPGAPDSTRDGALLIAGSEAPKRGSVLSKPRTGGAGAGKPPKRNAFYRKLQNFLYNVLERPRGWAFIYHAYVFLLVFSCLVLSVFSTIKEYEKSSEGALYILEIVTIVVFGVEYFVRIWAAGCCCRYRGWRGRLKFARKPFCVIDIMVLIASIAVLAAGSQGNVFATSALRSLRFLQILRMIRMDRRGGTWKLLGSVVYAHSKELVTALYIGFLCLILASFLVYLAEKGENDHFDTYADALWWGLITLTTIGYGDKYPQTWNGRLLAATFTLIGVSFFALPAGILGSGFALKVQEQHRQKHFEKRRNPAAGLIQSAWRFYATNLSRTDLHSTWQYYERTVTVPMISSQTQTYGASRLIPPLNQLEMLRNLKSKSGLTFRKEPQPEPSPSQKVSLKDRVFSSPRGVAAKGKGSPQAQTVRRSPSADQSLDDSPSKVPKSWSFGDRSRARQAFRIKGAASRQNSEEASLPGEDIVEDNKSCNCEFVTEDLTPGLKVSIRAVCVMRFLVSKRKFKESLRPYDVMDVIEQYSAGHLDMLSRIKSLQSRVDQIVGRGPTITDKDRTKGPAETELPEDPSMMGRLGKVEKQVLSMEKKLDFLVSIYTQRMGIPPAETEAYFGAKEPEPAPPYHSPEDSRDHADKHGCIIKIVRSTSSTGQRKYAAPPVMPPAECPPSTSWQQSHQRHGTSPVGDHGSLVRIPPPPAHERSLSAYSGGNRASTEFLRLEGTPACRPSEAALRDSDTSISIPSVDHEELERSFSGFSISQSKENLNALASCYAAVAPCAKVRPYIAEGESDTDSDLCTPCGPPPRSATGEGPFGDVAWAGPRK
Sequence of Lytic switch protein BZLF1 (P03206 whole entry): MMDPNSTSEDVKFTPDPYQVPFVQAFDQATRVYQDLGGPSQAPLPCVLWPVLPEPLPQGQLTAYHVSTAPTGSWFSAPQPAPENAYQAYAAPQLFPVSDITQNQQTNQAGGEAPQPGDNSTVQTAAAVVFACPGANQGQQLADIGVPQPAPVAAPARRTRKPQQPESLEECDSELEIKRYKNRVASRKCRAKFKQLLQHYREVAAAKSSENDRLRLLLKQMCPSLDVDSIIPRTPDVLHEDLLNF
Sequence of Nucleotide-binding oligomerization domain-containing protein 2 (Q9HC29 whole entry, the tested form may be a part): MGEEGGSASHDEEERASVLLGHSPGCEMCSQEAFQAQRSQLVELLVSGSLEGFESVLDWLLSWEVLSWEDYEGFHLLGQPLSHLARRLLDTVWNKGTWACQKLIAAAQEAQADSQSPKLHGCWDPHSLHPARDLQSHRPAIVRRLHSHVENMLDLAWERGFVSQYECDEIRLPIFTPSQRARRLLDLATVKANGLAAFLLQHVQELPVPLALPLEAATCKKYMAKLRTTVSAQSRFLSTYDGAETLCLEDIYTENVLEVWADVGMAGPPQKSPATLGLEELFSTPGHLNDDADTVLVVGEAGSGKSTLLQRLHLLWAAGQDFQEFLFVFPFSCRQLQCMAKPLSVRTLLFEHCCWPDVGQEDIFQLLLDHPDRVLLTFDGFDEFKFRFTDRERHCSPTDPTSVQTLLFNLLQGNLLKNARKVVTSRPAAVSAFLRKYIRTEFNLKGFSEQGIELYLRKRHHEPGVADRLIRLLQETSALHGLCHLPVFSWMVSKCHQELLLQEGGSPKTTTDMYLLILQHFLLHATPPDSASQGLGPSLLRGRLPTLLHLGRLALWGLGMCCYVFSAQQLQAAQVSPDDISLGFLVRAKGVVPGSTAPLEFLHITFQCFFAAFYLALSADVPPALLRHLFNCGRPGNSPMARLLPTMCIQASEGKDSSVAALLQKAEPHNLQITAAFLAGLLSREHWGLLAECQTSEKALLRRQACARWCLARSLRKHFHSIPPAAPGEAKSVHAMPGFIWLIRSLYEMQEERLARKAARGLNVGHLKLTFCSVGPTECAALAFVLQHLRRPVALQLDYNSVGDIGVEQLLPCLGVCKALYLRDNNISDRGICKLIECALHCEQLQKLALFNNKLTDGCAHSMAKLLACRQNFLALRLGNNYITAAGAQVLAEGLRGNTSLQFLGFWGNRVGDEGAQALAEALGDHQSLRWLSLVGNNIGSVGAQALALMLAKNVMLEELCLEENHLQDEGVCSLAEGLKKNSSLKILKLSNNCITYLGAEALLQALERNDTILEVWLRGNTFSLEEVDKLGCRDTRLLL
Sequence of Nonstructural protein 1 (Q194T2 whole entry): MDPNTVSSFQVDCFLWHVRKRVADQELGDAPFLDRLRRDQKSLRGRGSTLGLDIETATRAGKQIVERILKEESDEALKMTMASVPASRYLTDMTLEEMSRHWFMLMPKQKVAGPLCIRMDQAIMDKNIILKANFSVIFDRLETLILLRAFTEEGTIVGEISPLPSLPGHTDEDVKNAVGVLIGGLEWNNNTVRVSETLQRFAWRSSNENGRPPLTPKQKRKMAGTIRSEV
Sequence of Epstein-Barr nuclear antigen 1 (P03211 whole entry): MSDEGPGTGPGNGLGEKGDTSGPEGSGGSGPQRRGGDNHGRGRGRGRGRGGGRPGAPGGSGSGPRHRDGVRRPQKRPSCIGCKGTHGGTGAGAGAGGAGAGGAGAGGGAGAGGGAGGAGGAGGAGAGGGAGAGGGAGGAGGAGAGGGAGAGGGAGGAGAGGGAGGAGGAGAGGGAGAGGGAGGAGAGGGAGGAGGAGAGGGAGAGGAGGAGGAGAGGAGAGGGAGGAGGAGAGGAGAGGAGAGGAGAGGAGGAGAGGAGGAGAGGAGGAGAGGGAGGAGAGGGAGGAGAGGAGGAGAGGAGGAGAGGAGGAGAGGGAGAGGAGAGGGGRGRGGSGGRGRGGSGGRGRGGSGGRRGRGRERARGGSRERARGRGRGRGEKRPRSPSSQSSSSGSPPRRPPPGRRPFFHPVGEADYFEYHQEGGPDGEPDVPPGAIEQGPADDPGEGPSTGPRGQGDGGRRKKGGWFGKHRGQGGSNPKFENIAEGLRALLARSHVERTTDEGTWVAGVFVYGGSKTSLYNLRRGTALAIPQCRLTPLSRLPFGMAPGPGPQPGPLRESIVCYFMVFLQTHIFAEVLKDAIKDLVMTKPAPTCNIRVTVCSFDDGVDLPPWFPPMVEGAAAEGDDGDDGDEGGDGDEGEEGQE

O=C(NC1CCN(C(=O)N2c3ccccc3Sc3ccccc32)CC1)c1ccccc1F
IC50 [1]: > 100 µM (active) | IC50 [2]: 115 µM (active)

O=C(Nc1c(S(=O)(=O)c2ccc(Cl)cc2)csc1Br)c1ccccc1Cl
EC50 (Mucolipin-3): > 3.32 µM (active) | EC50 (Ion channel NompC): > 29.9 µM (not active) | EC50 [3]: > 260 µM (inactive)

CCc1ccccc1NC(=O)c1ccc([N+](=O)[O-])s1
IC50 [4]: > 100 µM (active) | EC50 [5]: 0.471 µM (active) | EC50 [6]: > 30 µM (not active)

COc1ccc(N(C)S(=O)(=O)c2cccc(C(=O)NCC3CCCCC3)c2)cc1
IC50 [7]: > 35 µM (not active) | IC50 [8]: > 35 µM (not active) | EC50 [5]: > 30 µM (not active) | IC50 [9]: 14.1 µM (not active) | EC50 [6]: > 30 µM (not active)

Cc1cc(Cl)c(S(=O)(=O)N2CCN(c3ccccn3)CC2)cc1OCC(=O)NC1CCCCC1
EC50 [10]: 77.1 µM (active) | EC50 [11]: > 112 µM (not active) | EC50 [12]: 5.34 µM (active)

CCOc1ccc(NC(=O)CCC(=O)NNC(=O)COc2ccc(C)cc2Br)cc1
IC50 [13]: 5.52 µM (active) | IC50 [14]: > 111 µM (not active)

COc1cccc(-c2nc(SCC(=O)Nc3nc(-c4ccccc4)c(C)s3)nc(O)c2C#N)c1
IC50 [15]: 23.4 µM (active)

Oc1cccc(/C=N/Nc2ccc(Cl)nn2)c1O
EC50 (HEK293 [16]): > 20 µM (inactive) | IC50 (HEK293 [17]): 17.5 µM (active) | IC50 (HEK293 [18]): > 20 µM (inactive) | IC50 [19]: 7.91 µM (active) | EC50 [20]: > 20 µM (inactive) | IC50 (HEK293 [21]): > 20 µM (inactive) | IC50 (HEK293 [22]): > 20 µM (inactive) | IC50 (Exodeoxyribonuclease V): > 119 µM (inactive) | IC50 (Nonstructural protein 1): 2.23 µM (active) | IC50 [23]: > 119 µM (inactive) | AC50 (INS1): 1.76 µM (active) | AC50 [24]: 20.4 µM (active)
